In paper PMC8041284, “Tunable Methacrylamides for Covalent Ligand Directed Release Chemistry” (Journal of the American Chemical Society, 2021) one finds inhibition data, which are given here for 64 compounds.

The inhibition is the relative decrease from the control value, in per cent.

The target in the test is BTK (Homo sapiens, UniProt Q06187). Kind of test: biochemical.
The mark [1] stands for this setting: read-out: BTK inhibition (%), 0.75 uM BTK, […] probe 3l, 15 min preincubation.

Like-named read-outs stand apart in the source and are kept apart here.

Sequence of BTK (Q06187 402-655 limits assumed): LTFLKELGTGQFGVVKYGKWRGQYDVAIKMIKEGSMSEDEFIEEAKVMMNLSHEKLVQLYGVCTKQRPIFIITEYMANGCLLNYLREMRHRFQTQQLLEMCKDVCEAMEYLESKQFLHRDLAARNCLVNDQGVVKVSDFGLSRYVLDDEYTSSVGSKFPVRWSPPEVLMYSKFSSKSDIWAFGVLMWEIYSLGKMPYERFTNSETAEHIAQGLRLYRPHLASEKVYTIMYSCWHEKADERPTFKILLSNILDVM

For `C[C@@H]1C(=O)O[C@H]2[C@H](O)[C@]34[C@@H]5OC(=O)[C@]3(O[C@@H]3OC(=O)[C@H](O)[C@@]34[C@H](C(C)(C)C)[C@H]5O)[C@@]12O` [PCM-0215011], where the note is “read-out: BTK inhibition (%)”, the inhibition at 10 µM is 5.4%.
Take `C/C=C(\C)C(=O)O` [PCM-0215012]: the inhibition at 10 µM under setting [1] is 15.6%.
Still for that read-out and setting: next, `COC(=O)c1cc(O)c(O)c(O)c1` [PCM-0215013]: 17.9%; `O=C(O)CCc1ccc(O)cc1` [PCM-0215016]: -17.9%.
With `C=C1C[C@@]23CC[C@H]4[C@@](C)(CCC[C@@]4(C)C(=O)O[C@@H]4O[C@H](CO)[C@@H](O)[C@H](O)[C@H]4O)[C@@H]2CC[C@]1(O[C@@H]1O[C@H](CO)[C@@H](O)[C@H](O[C@@H]2O[C@H](CO)[C@@H](O)[C@H](O)[C@H]2O)[C@H]1O[C@@H]1O[C@H](CO)[C@@H](O)[C@H](O)[C@H]1O)C3` [PCM-0215017], the inhibition at 10 µM under setting [1] was found to be 0.8%.
For `O=Cc1ccc(O[C@@H]2O[C@H](CO)[C@@H](O)[C@@H](O)[C@H]2O)cc1` [PCM-0215018], the inhibition at 10 µM under setting [1] came to 7%.
For `O=C(O)c1cc(O)ccc1O` [PCM-0215019], the inhibition at 10 µM under setting [1] is -21.4%.
Same read-out and setting: next, `CC(C)=CCC[C@](C)(O[C@@H]1O[C@H](CO)[C@@H](O)[C@H](O)[C@H]1O)[C@H]1CC[C@]2(C)[C@@H]1[C@H](O)C[C@@H]1[C@@]3(C)CC[C@H](O[C@@H]4O[C@H](CO)[C@@H](O)[C@H](O)[C@H]4O[C@@H]4O[C@H](CO)[C@@H](O)[C@H](O)[C@H]4O)C(C)(C)[C@@H]3CC[C@]12C` [PCM-0215020]: 21%; `COc1ccc([C@@H]2OC[C@H]3[C@@H]2CO[C@@H]3c2ccc(O[C@@H]3O[C@H](CO)[C@@H](O)[C@H](O)[C@H]3O)c(OC)c2)cc1OC` [PCM-0215021]: -6.2%.
`CC(=O)O[C@H]1C(=O)[C@@]2(C)[C@H]([C@H](OC(=O)c3ccccc3)[C@]3(O)C[C@H](O)C(C)=C1C3(C)C)[C@]1(OC(C)=O)CO[C@@H]1C[C@@H]2O` [PCM-0215022]: the inhibition at 10 µM under setting [1] is -17.1%.
In the case of `Cc1ccc2oc(=O)ccc2c1` [PCM-0215023], the inhibition at 10 µM under setting [1] is -3.9%.
The same measure, in the same setting: next, `OC[C@H]1O[C@@H](Oc2c(O)cc(O)cc2/C=C/c2ccc(O)cc2)[C@H](O)[C@@H](O)[C@@H]1O` [PCM-0215025]: 9.7%; `OC[C@H]1O[C@@H](O[C@@H]2OC=C[C@H]3[C@H](O)[C@@H]4O[C@]4(CO)[C@@H]23)[C@H](O)[C@@H](O)[C@@H]1O` [PCM-0215028]: 26.2%; `CC(C)=CCC[C@](C)(O[C@@H]1O[C@H](CO)[C@@H](O)[C@H](O)[C@H]1O)[C@H]1CC[C@]2(C)[C@@H]1[C@H](O)C[C@@H]1[C@@]3(C)CC[C@H](O)C(C)(C)[C@@H]3[C@@H](O[C@@H]3O[C@H](CO)[C@@H](O)[C@H](O)[C@H]3O)C[C@]12C` [PCM-0215029]: 14%.
Consider `CC(C)=CCC[C@](C)(O[C@@H]1O[C@H](CO[C@@H]2O[C@H](CO)[C@@H](O)[C@H](O)[C@H]2O)[C@@H](O)[C@H](O)[C@H]1O)[C@H]1CC[C@]2(C)[C@@H]1[C@H](O)C[C@@H]1[C@@]3(C)CC[C@H](O[C@@H]4O[C@H](CO)[C@@H](O)[C@H](O)[C@H]4O[C@@H]4O[C@H](CO)[C@@H](O)[C@H](O)[C@H]4O)C(C)(C)[C@@H]3CC[C@]12C` [PCM-0215030], for which the inhibition at 10 µM under setting [1] is -0.7%.
The same measure, in the same setting: next, `COc1cc(C(=O)O)cc(OC)c1OC` [PCM-0215032]: -21%.
As to `COC(=O)c1cc(OC)c(OC)c(OC)c1` [PCM-0215033], the inhibition at 10 µM under setting [1] is -13.2%.
The same measure, in the same setting: next, `OC[C@@H](O)[C@H](O)[C@H](O)[C@@H](O)CO` [PCM-0215034]: -10.1%; `C[C@H](CCC(=O)NCCS(=O)(=O)O)[C@H]1CC[C@H]2[C@@H]3[C@H](O)C[C@@H]4C[C@H](O)CC[C@]4(C)[C@H]3CC[C@]12C` [PCM-0215035]: -0.8%; `COC(=O)c1ccc(O)c(O)c1` [PCM-0215036]: -15.6%.
On the same count and under the same terms, next, `COC1[C@@H](O)[C@@H](O)C(O)[C@H](O)[C@H]1O` (stereo partly shown) [PCM-0215037]: -11%.
Regarding `OC[C@H]1OC(O)[C@H](O)[C@@H](O)[C@H]1O` (stereo partly shown) [PCM-0215038], the inhibition at 10 µM under setting [1] is -23.3%.
Take `CCOC(=O)/C=C/c1ccc(O)c(OC)c1` [PCM-0215040]: under setting [1], the inhibition at 10 µM is -8.3%.
The same measure, in the same setting: next, `OCc1ccc(O)cc1` [PCM-0215041]: 9.3%.
For the compound `COc1cc(CO)ccc1O` [PCM-0215042], the inhibition at 10 µM under setting [1] came out at 0%.
Same read-out and setting: next, `CC(C)(O)[C@H]1CC[C@@](C)([C@H]2[C@@H](O)C[C@@]3(C)[C@@H]4C[C@H](O)[C@H]5C(C)(C)[C@@H](O)CC[C@@]56C[C@@]46CC[C@]23C)O1` [PCM-0215043]: -14.8%.
As to `O=C1CCC[C@@H]2[C@H]3CCCN4CCC[C@H](CN12)[C@@H]34` [PCM-0215044], the inhibition at 10 µM under setting [1] is -16.3%.
The same measure, in the same setting: next, `CC(C)(C)OC(=O)N[C@@H]1CCCC[C@H]1N` [PCM-0215045]: -24.1%.
Same read-out and setting: next, `CC1(C)CC[C@]2(C(=O)O)CC[C@]3(C)C(=CC[C@@H]4[C@@]5(C)CC[C@H](O)[C@@](C)(CO)[C@@H]5CC[C@]43C)[C@@H]2C1` [PCM-0215046]: 15.6%; `C=C(C)[C@@H]1CC[C@]2(C(=O)O)CC[C@]3(C)[C@H](CC[C@@H]4[C@@]5(C)CCC(=O)C(C)(C)[C@@H]5CC[C@]43C)[C@@H]12` [PCM-0215047]: 66.9%.
As for `C[C@H]1[C@H](C)CC[C@]2(C(=O)O)CC[C@]3(C)C(=CC[C@@H]4[C@@]5(C)CCC(=O)C(C)(C)[C@@H]5CC[C@]43C)[C@H]12` [PCM-0215048], the inhibition at 10 µM under setting [1] turned out to be 7%.
On the same count and under the same terms, next, `C[C@@]12CC[C@@H]3[C@@](CC[C@H]4[C@@]3(C)CCC[C@@]4(C)C(=O)O)(CC1=O)C2` [PCM-0215049]: -16.3%; `O=C1C(c2[nH]c3ccccc3c2O)=Nc2ccccc21` [PCM-0215050]: 28.8%; `COc1c(O[C@@H]2O[C@H](CO)[C@@H](O)[C@H](O)[C@H]2O)cc2occ(-c3ccc(O)cc3)c(=O)c2c1O` [PCM-0215052]: -3.1%.
As to `CC(=O)c1ccc(O)c(C(=O)O)c1` [PCM-0215053], the inhibition at 10 µM under setting [1] was -9.3%.
Same read-out and setting: next, `CC(=O)O[C@]1(C)CC[C@@]23C[C@@H]1C(C)(C)[C@@H]2CC[C@H]3C` [PCM-0215054]: 10.9%.
Turning to `O=C(O)CCc1c[nH]c2ccccc12` [PCM-0215055], the inhibition at 10 µM under setting [1] is -34.2%.
Turning to `CC(=O)Oc1cc(C)c(OC(C)=O)c2ccccc12` [PCM-0215056], the inhibition at 10 µM under setting [1] was -25.7%.
On the same count and under the same terms, next, `NC(=O)c1ccc[n+]([O-])c1` [PCM-0215057]: 5.4%.
Still for that read-out and setting: next, `COC(=O)c1cc(OC)c(O)c(OC)c1` [PCM-0215058]: -17.1%; `CC(C)c1cccc(O)c(=O)c1` [PCM-0215059]: 3.9%; `C[C@H](CC[C@@]1(O)O[C@H]2C[C@H]3[C@@H]4CC=C5C[C@@H](O[C@@H]6O[C@H](CO)[C@@H](O[C@@H]7O[C@@H](C)[C@H](O)[C@@H](O)[C@H]7O)[C@H](O)[C@H]6O[C@@H]6O[C@@H](C)[C@H](O)[C@@H](O)[C@H]6O)CC[C@]5(C)[C@H]4CC[C@]3(C)[C@H]2[C@@H]1C)CO[C@@H]1O[C@H](CO)[C@@H](O)[C@H](O)[C@H]1O` [PCM-0215060]: -28%.
In the case of `CCC(=O)O[C@H]1CC[C@H]2[C@@H]3CC[C@H]4CC(=O)[C@H](C)C[C@]4(C)[C@H]3CC[C@]12C` [PCM-0215061], the inhibition at 10 µM (read-out: BTK inhibition (%)) is -14%.
The same measure, in the same setting: next, `CC(=O)O[C@H]1CC[C@H]2[C@@H]3CCC4=CC(=O)CCC4=C3C=C[C@]12C` [PCM-0215062]: 2.3%; `C[C@]12C=CC(=O)C=C1CC[C@@H]1[C@@H]2CC[C@@]2(C)[C@H]1CC[C@]2(C)O` [PCM-0215063]: -11.7%.
Turning to `Clc1ncnc2nc[nH]c12` [PCM-0215064], the inhibition at 10 µM under setting [1] amounted to 9.3%.
For the compound `Cc1cn([C@H]2C[C@H](O)[C@@H](CO)O2)c(=O)[nH]c1=O` [PCM-0215065], under setting [1], the inhibition at 10 µM is -11.7%.
Take `CC(=O)Oc1cccc2ccccc12` [PCM-0215066]: the inhibition at 10 µM under setting [1] was -21%.
Same read-out and setting: next, `CC(=O)c1ccc(O)cc1O` [PCM-0215067]: 9.3%.
Same read-out and setting: next, `COc1cc(C=O)cc(OC)c1O` [PCM-0215069]: -33.5%; `O=C1CCc2ccc(O)cc2N1` [PCM-0215070]: 9.3%.
The same measure, in the same setting: next, `OC[C@H]1O[C@H](OC[C@H]2OC(O)[C@H](O)[C@@H](O)[C@@H]2O)[C@H](O)[C@@H](O)[C@H]1O` (stereo partly shown) [PCM-0215071]: -21.8%; `O=c1ccn([C@@H]2O[C@H](CO)[C@@H](O)[C@@H]2O)c(=O)[nH]1` [PCM-0215072]: 5.4%; `OC[C@@H](O)[C@@H](O[C@H]1O[C@H](CO)[C@@H](O)[C@H](O)[C@H]1O)[C@H](O)[C@@H](O)CO` [PCM-0215074]: -16.3%.
Regarding `O=C(O)c1ccc(O)c(O)c1` [PCM-0215076], the inhibition at 10 µM under setting [1] turned out to be 2.8%.
On to `COc1cc(C=O)ccc1OC(C)=O` [PCM-0215077], for which the inhibition at 10 µM under setting [1] is -10.1%.
For the compound `CC1(C)[C@H]2CC[C@]1(C)[C@H](O)C2` [PCM-0215078], the inhibition at 10 µM under setting [1] is -20.2%.
For `CO/N=C(\C(=O)N[C@@H]1C(=O)N2C(C(=O)OC(C)OC(C)=O)=C(COC(N)=O)CS[C@H]12)c1ccco1` (stereo partly shown) [PCM-0215079], the inhibition at 10 µM under setting [1] was 2.8%.
As for `CC(=O)O` [PCM-0215080], the inhibition at 10 µM under setting [1] was -2.3%.
As for `CC/C=C(\C(=O)N[C@@H]1C(=O)N2C(C(=O)OCOC(=O)C(C)(C)C)=C(COC(N)=O)CS[C@H]12)c1csc(N)n1` [PCM-0215081], the inhibition at 10 µM under setting [1] was determined as 8.6%.
Still for that read-out and setting: next, `O=c1[nH]c(=O)n([C@H]2C[C@H](O)[C@@H](CO)O2)cc1/C=C/Br` [PCM-0215082]: 7.7%.
The same measure, in the same setting: next, `COC(=O)c1ccc(O)cc1` [PCM-0215083]: -5.4%; `O[C@@H]1[C@H](O)[C@@H](O)CO[C@H]1O` [PCM-0215084]: 0.8%; `CC1=CC(=O)CC(C)(C)C1=O` [PCM-0215085]: 7.8%.
